39 molecules from patent publication US10457655B2, “Compounds and compositions for inhibition of FASN” (FORMA Therapeutics, Inc., priority 2013, dated 2019) can be followed below.

One assay deals with FASN enzyme (Homo sapiens, UniProt P49327). In words: Enzymatic Assay for FASN Inhibitors. The assay is classed as biochemical.
Sequence of FASN enzyme (P49327 whole entry): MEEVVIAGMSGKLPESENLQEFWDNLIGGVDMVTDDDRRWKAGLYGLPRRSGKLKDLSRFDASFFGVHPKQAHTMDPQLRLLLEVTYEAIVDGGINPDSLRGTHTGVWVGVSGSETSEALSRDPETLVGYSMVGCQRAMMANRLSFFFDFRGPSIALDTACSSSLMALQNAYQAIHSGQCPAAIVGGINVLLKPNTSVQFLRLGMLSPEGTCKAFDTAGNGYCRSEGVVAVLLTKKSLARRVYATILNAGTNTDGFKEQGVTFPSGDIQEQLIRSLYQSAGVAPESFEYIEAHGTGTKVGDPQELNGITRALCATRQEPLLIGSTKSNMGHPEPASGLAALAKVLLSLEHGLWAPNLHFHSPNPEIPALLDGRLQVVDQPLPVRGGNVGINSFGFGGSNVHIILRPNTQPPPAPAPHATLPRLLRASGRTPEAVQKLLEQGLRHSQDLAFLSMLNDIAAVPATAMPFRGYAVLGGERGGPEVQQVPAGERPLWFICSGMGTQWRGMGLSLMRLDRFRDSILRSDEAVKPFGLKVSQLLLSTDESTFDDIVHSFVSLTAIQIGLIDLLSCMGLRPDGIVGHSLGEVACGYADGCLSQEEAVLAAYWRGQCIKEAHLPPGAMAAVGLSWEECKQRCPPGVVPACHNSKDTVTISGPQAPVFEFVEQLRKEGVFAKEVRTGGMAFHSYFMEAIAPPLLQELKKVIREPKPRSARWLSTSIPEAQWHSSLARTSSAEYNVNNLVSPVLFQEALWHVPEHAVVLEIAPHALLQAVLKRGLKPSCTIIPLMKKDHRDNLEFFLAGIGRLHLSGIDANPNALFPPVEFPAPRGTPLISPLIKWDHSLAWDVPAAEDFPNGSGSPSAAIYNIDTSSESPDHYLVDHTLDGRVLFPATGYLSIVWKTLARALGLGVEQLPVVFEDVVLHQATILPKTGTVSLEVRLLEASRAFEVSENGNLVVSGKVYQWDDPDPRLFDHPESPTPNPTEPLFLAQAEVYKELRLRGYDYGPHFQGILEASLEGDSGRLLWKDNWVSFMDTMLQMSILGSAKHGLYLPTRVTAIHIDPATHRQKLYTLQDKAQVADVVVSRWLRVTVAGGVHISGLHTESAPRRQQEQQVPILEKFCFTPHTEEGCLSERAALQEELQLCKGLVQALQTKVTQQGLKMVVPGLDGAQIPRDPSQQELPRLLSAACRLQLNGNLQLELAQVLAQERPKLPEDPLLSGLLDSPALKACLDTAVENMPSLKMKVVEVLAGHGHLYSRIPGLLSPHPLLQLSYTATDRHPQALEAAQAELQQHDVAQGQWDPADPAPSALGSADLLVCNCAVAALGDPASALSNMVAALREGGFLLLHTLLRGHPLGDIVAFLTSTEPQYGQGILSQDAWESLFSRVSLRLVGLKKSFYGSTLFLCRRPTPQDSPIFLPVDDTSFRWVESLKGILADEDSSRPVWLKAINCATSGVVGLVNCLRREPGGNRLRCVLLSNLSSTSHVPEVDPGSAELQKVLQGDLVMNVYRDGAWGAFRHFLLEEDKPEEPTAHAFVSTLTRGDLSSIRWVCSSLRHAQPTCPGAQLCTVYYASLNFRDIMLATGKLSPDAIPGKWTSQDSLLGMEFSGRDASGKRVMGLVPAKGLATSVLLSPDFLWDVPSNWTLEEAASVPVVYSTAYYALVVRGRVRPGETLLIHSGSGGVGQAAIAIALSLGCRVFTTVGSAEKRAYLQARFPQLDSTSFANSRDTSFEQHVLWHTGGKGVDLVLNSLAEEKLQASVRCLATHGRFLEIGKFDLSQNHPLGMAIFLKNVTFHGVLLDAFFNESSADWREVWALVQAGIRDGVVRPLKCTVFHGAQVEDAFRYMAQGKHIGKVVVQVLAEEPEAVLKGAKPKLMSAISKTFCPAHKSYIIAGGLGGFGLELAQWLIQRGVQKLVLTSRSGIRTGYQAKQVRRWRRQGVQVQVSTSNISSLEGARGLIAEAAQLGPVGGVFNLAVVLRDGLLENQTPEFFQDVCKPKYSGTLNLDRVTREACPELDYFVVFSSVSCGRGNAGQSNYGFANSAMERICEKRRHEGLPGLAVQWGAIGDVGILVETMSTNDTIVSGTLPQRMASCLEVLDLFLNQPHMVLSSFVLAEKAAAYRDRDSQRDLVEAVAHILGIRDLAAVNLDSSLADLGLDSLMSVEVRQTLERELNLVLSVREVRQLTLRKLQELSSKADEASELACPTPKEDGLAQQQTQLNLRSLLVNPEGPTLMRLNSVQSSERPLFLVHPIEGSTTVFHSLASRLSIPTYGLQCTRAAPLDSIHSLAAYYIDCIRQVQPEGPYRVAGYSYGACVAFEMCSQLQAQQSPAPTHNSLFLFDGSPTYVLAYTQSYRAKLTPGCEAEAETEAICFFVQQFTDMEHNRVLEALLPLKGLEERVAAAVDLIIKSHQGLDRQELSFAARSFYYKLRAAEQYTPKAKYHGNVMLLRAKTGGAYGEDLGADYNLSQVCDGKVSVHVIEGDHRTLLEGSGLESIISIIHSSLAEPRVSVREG
Conditions: not given
The method in brief: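 40 nM FASN preincubated with compound 60 min at 25° C in HEPES pH 7.3 buffer with 0.04% Triton X-100. Then 20 μM acetyl-CoA, 60 μM malonyl-CoA and 100 μM NADPH added for 90 min, quenched with CPM thiol probe; fluorescence 360/530 nm, IC50 by four-parameter fit.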
`COc1ccc2nc(-c3ccc(C(=O)N4CCN(C(=O)C5(O)CC5)CC4)cc3)oc2c1` [1-{4-[4-(6-methoxy-1,3-benzoxazol-2-yl)benzoyl]piperazine-1-carbonyl}cyclopropan-1-ol] yielded a concentration for half-maximal inhibition (IC50) of less than 500 nM. Same read-out and setting: in the case of `O=C(c1ccc(-c2nc3cc(Cl)ccc3[nH]2)cc1)N1CCN(C(=O)C2(O)CC2)CC1` [1-[(4-{[4-(5-chloro-1H-1,3-benzodiazol-2-yl)phenyl]carbonyl}piperazin-1-yl)carbonyl]cyclopropan-1-ol] it was less than 500 nM. The same measure, in the same setting: in the case of `O=C(c1ccc(-c2cccc3[nH]cnc23)cc1Cl)N1CCN(C(=O)C2(O)CC2)CC1` [1-{4-[4-(1H-1,3-benzodiazol-4-yl)-2-chlorobenzoyl]piperazine-1-carbonyl}cyclopropan-1-ol] it was less than 500 nM. Still for that read-out and setting: with `O=C(Nc1noc2cc(-c3ccc(C(=O)N4CCN(C(=O)C5(O)CC5)CC4)cc3)ccc12)C1CC1` [N-(6-{4-[4-(1-hydroxycyclopropanecarbonyl)piperazine-1-carbonyl]phenyl}-1,2-benzoxazol-3-yl)cyclopropanecarboxamide] the figure was less than 500 nM. For the molecule `O=C(c1ccc(-c2nc3ccc(F)cc3o2)cc1)N1CCN(C(=O)C2(O)CC2)CC12CC2` [1-{4-[4-(6-fluoro-1,3-benzoxazol-2-yl)benzoyl]-4,7-diazaspiro[2.5]octane-7-carbonyl}cyclopropan-1-ol], the IC50 is less than 500 nM. As for `Cc1nn(-c2ccc(C(=O)N3CCN(C(=O)C4(O)CC4)CC3)c(F)c2)c2ccccc12`, the IC50 is less than 500 nM. Regarding `C[C@H]1CN(C(=O)C2(O)CC2)CCN1C(=O)c1ccc(-c2ccc3c(c2)ncn3C)cc1`, the half-maximal inhibitory concentration (IC50) is less than 500 nM. Molecule `O=C(c1ccc(-c2cccc(NS(=O)(=O)C3CCOCC3)c2)cc1)N1CCN(C(=O)C2(O)CC2)CC1` [N-(3-{4-[4-(1-hydroxycyclopropanecarbonyl)piperazine-1-carbonyl]phenyl}phenyl)oxane-4-sulfonamide] registered a concentration for half-maximal inhibition (IC50) of less than 500 nM. On the same count and under the same terms, in the case of `O=C(c1ccc(-c2ccc3ccnn3c2)cc1)N1CCN(C(=O)C2(O)CC2)CC1` [1-[4-(4-{pyrazolo[1,5-a]pyridin-6-yl}benzoyl)piperazine-1-carbonyl]cyclopropan-1-ol] it was less than 500 nM; in that of `O=C(c1ccc(-c2ccc(Cl)c(Cl)c2)cc1)N1CCN(C(=O)C2(O)CC2)CC1` [1-[(4-{[4-(3,4-dichlorophenyl)phenyl]carbonyl}piperazin-1-yl)carbonyl]cyclopropan-1-ol], less than 500 nM; in that of `C[C@H]1CN(C(=O)c2ccc(-c3ccc4c(c3)ncn4C)cc2F)CCN1C(=O)C1(O)CC1` [1-[(2S)-4-[2-fluoro-4-(1-methyl-1H-1,3-benzodiazol-5-yl)benzoyl]-2-methylpiperazine-1-carbonyl]cyclopropan-1-ol], less than 500 nM. Still for that read-out and setting: with `Cn1ncc2ccc(-c3ccc(C(=O)N4CCN(C(=O)C5(O)CC5)CC4)cc3F)cc21` [1-{4-[3-fluoro-4-(1-methyl-1H-indazol-6-yl)benzoyl]piperazine-1-carbonyl}cyclopropan-1-ol] the figure was less than 500 nM; with `O=C(c1ccc(-c2cccc(N3CCCC3=O)c2)cc1)N1CCN(C(=O)C2(O)CC2)CC1` [1-(3-{4-[4-(1-hydroxycyclopropanecarbonyl)piperazine-1-carbonyl]phenyl}phenyl)pyrrolidin-2-one], less than 500 nM; with `O=C(c1ccc(N2CCc3ccccc3C2)cc1)N1CCN(C(=O)C2(O)CC2)CC1` [1-{4-[4-(1,2,3,4-tetrahydroisoquinolin-2-yl)benzoyl]piperazine-1-carbonyl}cyclopropan-1-ol], less than 500 nM. The same measure, in the same setting: in the case of `O=C(c1ccc(-c2ccc3[nH]c(CO)nc3c2)cc1)N1CCN(C(=O)C2(O)CC2)CC1` [1-(4-{4-[2-(hydroxymethyl)-1H-1,3-benzodiazol-5-yl]benzoyl}piperazine-1-carbonyl)cyclopropan-1-ol] it was less than 500 nM. In turn, `Cn1cc2ccc(-c3ccc(C(=O)N4CCN(C(=O)C5(O)CC5)CC4)cc3Cl)cc2n1` [1-{4-[3-chloro-4-(2-methyl-2H-indazol-6-yl)benzoyl]piperazine-1-carbonyl}cyclopropan-1-ol] returned a concentration for half-maximal inhibition (IC50) of less than 500 nM. On to `C[C@@H]1CN(C(=O)c2ccc(-c3nc4ccc(F)cc4o3)cc2)C[C@H](C)N1C(=O)C1(N)CC1` [1-[(2S,6R)-4-[4-(6-fluoro-1,3-benzoxazol-2-yl)benzoyl]-2,6-dimethylpiperazine-1-carbonyl]cyclopropan-1-amine], for which the IC50 is less than 500 nM. On the same count and under the same terms, in the case of `O=C(c1ccc(-c2cc3ccccc3[nH]2)cc1)N1CCN(C(=O)C2(O)CC2)CC1` [1-[(4-{[4-(1H-indol-2-yl)phenyl]carbonyl}piperazin-1-yl)carbonyl]cyclopropan-1-ol] it was less than 500 nM; in that of `Cc1nn(C)c2ccc(-c3ccc(C(=O)N4CCN(C(=O)C5(O)CC5)CC4)cc3F)cc12` [1-{4-[4-(1,3-dimethyl-1H-indazol-5-yl)-3-fluorobenzoyl]piperazine-1-carbonyl}cyclopropan-1-ol], less than 500 nM. Still for that read-out and setting: in the case of `COc1ccc(OC(F)(F)F)cc1-c1ccc(C(=O)N2CCN(C(=O)C3(O)CC3)CC2)cc1` it was less than 500 nM. Molecule `Nc1n[nH]c2ccc(-c3ccc(C(=O)N4CCN(C(=O)C5(O)CC5)CC4)cc3)cc12` [1-{4-[4-(3-amino-1H-indazol-5-yl)benzoyl]piperazine-1-carbonyl}cyclopropan-1-ol] had an IC50 of less than 500 nM. Same read-out and setting: in the case of `N#CC1(c2cccc(-c3ccc(C(=O)N4CCN(C(=O)C5(O)CC5)CC4)cc3)c2)CCC1` [1-(3-{4-[4-(1-hydroxycyclopropanecarbonyl)piperazine-1-carbonyl]phenyl}phenyl)cyclobutane-1-carbonitrile] it was less than 500 nM. `O=C(Nc1noc2ccc(-c3ccc(C(=O)N4CCN(C(=O)C5(O)CC5)CC4)cc3)cc12)C1CC1` [N-(5-{4-[4-(1-hydroxycyclopropanecarbonyl)piperazine-1-carbonyl]phenyl}-1,2-benzoxazol-3-yl)cyclopropanecarboxamide] had a concentration for half-maximal inhibition (IC50) of less than 500 nM.

The same assay, now with this note: FASN enzymatic assay; Table 2-2.
In the case of `Cc1ccc(F)c(-c2ccc(C(=O)N3CCN(C(=O)C4(O)CC4)CC3)cc2)c1` [1-[(4-{[4-(2-fluoro-5-methylphenyl)phenyl]carbonyl}piperazin-1-yl)carbonyl]cyclopropan-1-ol], the IC50 is 500 to 5000 nM. On the same count and under the same terms, in the case of `CC(C)NC(=O)c1ccc(F)c(-c2ccc(C(=O)N3CCN(C(=O)C4(O)CC4)CC3)cc2)c1` [4-fluoro-3-[4-({4-[(1-hydroxycyclopropyl)carbonyl]piperazin-1-yl}carbonyl)phenyl]-N-(propan-2-yl)benzamide] it was 500 to 5000 nM; in that of `COc1ccc2cc(-c3ccc(C(=O)N4CCN(C(=O)C5(O)CC5)CC4)nc3)ccc2n1` [1-[(4-{[5-(2-methoxyquinolin-6-yl)pyridin-2-yl]carbonyl}piperazin-1-yl)carbonyl]cyclopropan-1-ol], 500 to 5000 nM. The same measure, in the same setting: in the case of `O=C(c1ccc(-c2nccc3occc23)cc1)N1CCN(C(=O)C2(O)CC2)CC1` [1-({4-[(4-{furo[3,2-c]pyridin-4-yl}phenyl)carbonyl]piperazin-1-yl}carbonyl)cyclopropan-1-ol] it was 500 to 5000 nM; in that of `COc1cc(C(=O)N2CCN(C(=O)C3(O)CC3)CC2)ccc1-c1ccc2ncccc2c1` [1-[(4-{[3-methoxy-4-(quinolin-6-yl)phenyl]carbonyl}piperazin-1-yl)carbonyl]cyclopropan-1-ol], 500 to 5000 nM. `O=C(c1ccc(-c2ccccc2)cc1)N1CCN(C(=O)C2(O)CCC2)CC1` [1-({4-[(4-phenylphenyl)carbonyl]piperazin-1-yl}carbonyl)cyclobutan-1-ol] returned an IC50 of 500 to 5000 nM. Same read-out and setting: with `O=C(c1ccc(-c2ccc3ncccc3c2)nc1)N1CCN(C(=O)C2(O)CC2)CC1` [1-[(4-{[6-(quinolin-6-yl)pyridin-3-yl]carbonyl}piperazin-1-yl)carbonyl]cyclopropan-1-ol] the figure was 500 to 5000 nM; with `Cc1ccc(-c2ccc(C(=O)N3CCN(C(=O)C4(O)CC4)CC3)cc2)cc1F` [1-[(4-{[4-(3-fluoro-4-methylphenyl)phenyl]carbonyl}piperazin-1-yl)carbonyl]cyclopropan-1-ol], 500 to 5000 nM; with `Cc1nc(-c2ccc3c(ccn3C)c2)sc1C(=O)N1CCN(C(=O)C2(O)CC2)CC1` [1-[(4-{[4-methyl-2-(1-methyl-1H-indol-5-yl)-1,3-thiazol-5-yl]carbonyl}piperazin-1-yl)carbonyl]cyclopropan-1-ol], 500 to 5000 nM.

Staying with this assay, now noted: FASN enzymatic assay; Table 2-3.
As for `CC(C)Oc1cccc(-c2ccc(C(=O)N3CCN(C(=O)C4(O)CC4)CC3)cc2)c1F` [1-{[4-({4-[2-fluoro-3-(propan-2-yloxy)phenyl]phenyl}carbonyl)piperazin-1-yl]carbonyl}cyclopropan-1-ol], the half-inhibitory concentration (IC50) is not below 5000 nM. Still for that read-out and setting: in the case of `O=C(c1ccc(-c2cc(F)ccc2F)cc1)N1CCN(C(=O)C2(O)CC2)CC1` [1-[(4-{[4-(2,5-difluorophenyl)phenyl]carbonyl}piperazin-1-yl)carbonyl]cyclopropan-1-ol] it was not below 5000 nM.

Molecule `COc1ccc(-c2ccc(C(=O)N3CCN(C(=O)C4(O)CC4)CC3)cc2)c(OC)n1` [1-[(4-{[4-(2,6-dimethoxypyridin-3-yl)phenyl]carbonyl}piperazin-1-yl)carbonyl]cyclopropan-1-ol] displayed an IC50 not below 5000 nM. `N#Cc1cc(F)ccc1-c1ccc(C(=O)N2CCN(C(=O)C3(O)CC3)CC2)cc1` [5-fluoro-2-[4-({4-[(1-hydroxycyclopropyl)carbonyl]piperazin-1-yl}carbonyl)phenyl]benzonitrile] displayed an IC50 not below 5000 nM. On the same count and under the same terms, in the case of `COc1cnccc1-c1ccc(C(=O)N2CCN(C(=O)C3(O)CC3)CC2)cc1` [1-[(4-{[4-(3-methoxypyridin-4-yl)phenyl]carbonyl}piperazin-1-yl)carbonyl]cyclopropan-1-ol] it was not below 5000 nM; in that of `O=C(c1ccc(-c2ccc(Cl)cc2F)cc1)N1CCN(C(=O)C2(O)CC2)[C@H](CO)C1`, not below 5000 nM; in that of `O=C(c1cn2cc(-c3ccccc3)ccc2n1)N1CCN(C(=O)C2(O)CC2)CC1` [1-{[4-({6-phenylimidazo[1,2-a]pyridin-2-yl}carbonyl)piperazin-1-yl]carbonyl}cyclopropan-1-ol], not below 5000 nM.

The IC50 is the concentration needed to halve the response being measured.
